# Measurements: patent US10316050B2, “PT (IV) complexes containing 4,4′-disubstituted-2,2′-bipyridyl and their use in cancer therapy” (THE BOARD OF REGENTS OF THE NEVADA SYSTEM OF HIGHER …, priority 2014, dated 2019)
# Key:
# Assay type in all cases: cell-based, human
# [1] = test system: phosphorylated H2AX (γH2AX) in A549 cells; assay: Flow cytometry of phosphorylated H2AX, A549; conditions: A549, 25 μM Pt(IV)-4C or 7.5 μM Pt(IV)-5C for 6 hours, analyzed 12 hours post treatment
# Protocol: FIG. 9 is a series of graphs plotting Pt(IV) complex-induced phosphorylation of H2AX in A549 cells (top panels) and DU145 cells (bottom panels). A549 cells were treated with control (left), 25 μM Pt(IV)-4C (center), or 7.5 μM Pt(IV)-5C (right) for 6 hours, and analyzed 12 hours post treatment. DU145 cells were treated for 2 hours with control (left), 10 μM Pt(IV)-4C (center), or 2.5 μM Pt(IV)-5C (right), and analyzed 7 hours post treatment. Data are representative of three independent experiments.
# (§1) Cells (200,000 to 250,000) were seeded in 60 mm dishes and incubated at 37° C. in a humidified, 5% CO2 atmosphere for 2 days to reach ˜50-60% confluence. The cells were treated with the platinum complexes as indicated, the floating cells were collected, and both attached and floating cells were washed 2× with PBS. The cells were resuspended in fresh medium and incubated as indicated. After incubation, both the floating and attached cells were collected and fixed by incubation in 4% formaldehyde for 10 minutes at room temperature. The fixed cells were pelleted and permeabilized by incubation in 500 μL of ice-cold methanol at 4° C. for 10 minutes. The samples were stored at −20° C. until analysis. For analysis, the cells were pelleted and washed 2× with 1% BSA in PBS. […] After washing 2× with 1% BSA, the cells were resuspended in PBS and analyzed on a Becton Dickinson FACS Calibur. […]
# [2] = test system: cleaved-PARP in A549 cells; assay: Flow cytometry of cleaved-PARP, A549; conditions: A549, 25 μM Pt(IV)-4C or 7.5 μM Pt(IV)-5C for 5 hours, analyzed 12 hours post treatment
# Protocol: FIG. 12 is a series of histograms indicating Pt(IV)-4C and Pt(IV)-5C-induced cleavage of PARP in A549 cells (top panels) and in DU145 cells (bottom). A549 cells were treated for 5 hours with control (left), 25 μM Pt(IV)-4C (center), or 7.5 μM Pt(IV)-5C (right), and analyzed 12 hours post treatment. DU145 cells were treated for 2 hours with control (left), 10 μM Pt(IV)-4C (center), or 2.5 μM Pt(IV)-5C (right), and analyzed seven hours post treatment. Data are representative of three independent experiments.
# as §1
# DU145 cells = assay: Annexin V/PI flow cytometry, DU145; conditions: DU145, 10 μM Pt(IV)-4C or 2.5 μM Pt(IV)-5C for 1 hour, analyzed 12 hours post treatment
# Protocol: (§2) FIG. 11 is a series of graphs showing flow cytometry analysis of Annexin V/PI staining in A549 cells (top) and DU145 cells (bottom) treated with Pt(IV)-4C and Pt(IV)-5C. A549 cells were treated for 5 hours with control (left), 25 μM Pt(IV)-4C (center), or 10 μM Pt(IV)-5C (right), and analyzed 12 hours post treatment. DU145 cells were treated for 1 hour with control (left), 10 μM Pt(IV)-4C (center), or 2.5 μM Pt(IV)-5C (right) and analyzed 12 hours post treatment. Q1=PI+, represents necrotic cells; Q2=Annexin V/PI+, representing late apoptotic/necrotic cells; Q3=Annexin V+, representing early apoptotic cells; Q4=AnnexinV/PI−, representing live cells. Data are representative of three independent experiments.
# (§3) Cells (˜50 to 60% confluent in 60 mm dishes) were treated as indicated with the platinum compound. After treatment, the floating cells were collected, and both attached and floating cells were washed 2× with PBS. The cells were resuspended in fresh medium and incubated as indicated. The cells were harvested (both the floating and attached cells were collected), counted, and pelleted. The cells were then washed two times with 5 mL of Ca^2+ and Mg^2+ free PBS. The pellets were then washed in 2.0 mL of 1× Annexin-V Binding buffer (BD Bioscience, San Jose, CAS) and centrifuged at 500×g for 5 minutes. […] A quantitative measure of these event shifts was accomplished by gating. […]
# A549 cells = assay: Annexin V/PI flow cytometry, A549; conditions: A549, 25 μM Pt(IV)-4C or 10 μM Pt(IV)-5C for 5 hours, analyzed 12 hours post treatment
# Protocol: as §2, §3
Compound,level of phosphorylated H2AX (γH2AX) [1],fold increase of cleaved-PARP [2],Annexin V/PI staining (apoptosis) (DU145 cells),Annexin V/PI staining (apoptosis) (A549 cells)
"CC(=O)[O][Pt]([Cl])([Cl])[O]C(C)=O.CCCCCOc1ccnc(-c2cc(OCCCCC)ccn2)c1 [Pt(IV)-5C, [Pt(IV)Cl2(OAc)2(4,4′-dipentoxy-2,2′-bipyridine)]]",increase of γH2AX,~7 fold,induce apoptosis,induce apoptosis
"[Pt(IV)Cl2(OAc)2(4,4′-dibutoxy-2,2′-bipyridine)] [Pt(IV)-4C]",increase of γH2AX,~7 fold,induce apoptosis,induce apoptosis
